{
  "source": "patent EP2386565A2",
  "about": "“Compounds and methods to inhibit or augment an inflammatory response” (Cambridge Enterprise Ltd., priority 1999, dated 2000)",
  "key": {"[1]": {"system": "gp120", "details": "ns = not significant; >100 = ED50 not determined", "protocol": "Binding assays. Cells (either Jurkat T-cells or THP-1 cells) were grown in RPMI 1640 medium supplemented with 10% fetal calf serum, 2 mM glutamine, 20 µM β-mercaptoethanol, 100 U/ml penicillin and 100 µg/ml streptomycin and maintained between 2 × 10^5 and 1 × 10^6 cells/ml. Prior to performing a binding assay, cells were spun out (100 × g; 4 minutes) and washed 3 times in ice-cold PBS. A volume of cell suspension in PBS containing 10^6 cells (for Jurkat cells) or 4 × 10^5 cells (for THP-1 cells) was pipetted into each well of a V-bottom 96-well plate (Gibco BRL) and spun out (100 x g; 4 minutes). Triplicate wells were then resuspended in 100 µl binding medium (PBS pH 7.2 containing 0.1% fatty acid-free bovine serum albumin (BSA)) containing labeled peptide in the presence or absence of various concentrations of unlabeled peptide. The plate was then incubated on ice for 90 minutes. Cells were washed 3 times with 380 µl of ice-cold PBS, spinning out the cells each time (100 × g; 4 minutes), and resuspended in 100 µl binding medium containing streptavidin-peroxidase (Amersham International) at 1:1000 dilution. Cells were incubated for a further 15 minutes on ice to allow labeling of any bound biotinylated peptide, then washed 4 times as above. Cells were then incubated with 200 µl TMB substrate (K-Blue, Bionostics) for 20 minutes at room temperature, and the reaction stopped by addition of 50 µl 2 M HCl. The plate was spun (3,000 × g; 3 minutes) and 200 µl of the colored product was transferred to an empty 96-well ELISA plate and the absorbance at 450 nm determined. For each assay, the absorbance of a blank reaction (no peptide added) was subtracted from all readings before further analysis.\nBinding experiments with labeled peptide 2 were performed with 10 nM labeled peptide in each reaction."}, "[2]": {"system": "HIV", "format": "cell-based", "details": "ns = not significant"}, "[3]": {"system": "chemokine-induced THP-1 migration", "assay": "THP-1 trans-well migration assay, several chemokines together (averages, selectivity, pan-chemokine statements)", "format": "cell-based, human", "details": "for effect on chemokine-induced THP-1 migration (in words): MCP-1, MIP1α, IL-8 and SDF1α", "protocol": "To determine whether an agent inhibits a chemokine-induced activity, such as macrophage recruitment, varying amounts of the agent are mixed with cells in the presence of a known chemoattractant. […] Chemokine (such as MCP-1, MIP1α, IL8 or SDF-1α), at a concentration known to cause significant migration of THP-1 cells in the trans-well migration assay, is placed in the lower compartment (Figure 1). Cells are then incubated at 37°C for a period sufficient to allow migration, e.g., 4 hours. After incubation, the cells are gently removed from the top of the filter with a pipette, 20 µl of 20 mM EDTA in simple PBS is added into each top well, and incubated for 20 minutes at 4°C. The filter is carefully flushed with media using a gentle flow, and removed. […] The media is carefully aspirated from each well, and the converted dye is solubilized by 20 µl of DMSO.\nChemotaxis was induced in a 96-well disposable chemotaxis chamber fitted with a 5 µM polycarbonate filter (PVP free, ChemoTX, Neuroprobe Inc., Cabin John). […] The framed filter was aligned with the holes in the corner of the filter frame and placed over the wells.\nPeptides were dissolved in Milli Q water and then serially diluted in culture medium. In most cases, the serially diluted peptides were added to the upper compartment of the chemotaxis chamber. The chamber was incubated at 37°C in a humidified atmosphere of 5% CO2 for 4 hours.\nAfter incubation, the cells were gently removed from the top of the filter with a pipette, 20 µl of 20 mM EDTA in PBS was added into each top well, and the mixture was incubated for 20 minutes at 4°C. The filter was then carefully flushed with media using a gentle flow, and removed. […] The curve was based on a two-fold dilution series of THP-1 cells (top standard 100,000 cells in 29 µl). […] The media was carefully aspirated from each well, and the converted dye was solubilized by 20 µl of DMSO.\nRepresentative chemokines included […] (\"CC\"), MIP-1α and RANTES, and two alpha-chemokines (\"CXC\"), IL-8 and SDF-1α. Additionally, to determine the specificity ofpeptide 3(1-12)[MCP-1]\nThe number of pluses is a qualitative indicating of the activity of each peptide in each assay."}, "[4]": {"molecular_target": "T1, 5-HT1a serotonin receptors (Homo sapiens, UniProt P08908)", "T1 construct": "purchased RBI/Sigma S-160; host or cells: membranes", "T1 sequence (P08908 whole entry)": "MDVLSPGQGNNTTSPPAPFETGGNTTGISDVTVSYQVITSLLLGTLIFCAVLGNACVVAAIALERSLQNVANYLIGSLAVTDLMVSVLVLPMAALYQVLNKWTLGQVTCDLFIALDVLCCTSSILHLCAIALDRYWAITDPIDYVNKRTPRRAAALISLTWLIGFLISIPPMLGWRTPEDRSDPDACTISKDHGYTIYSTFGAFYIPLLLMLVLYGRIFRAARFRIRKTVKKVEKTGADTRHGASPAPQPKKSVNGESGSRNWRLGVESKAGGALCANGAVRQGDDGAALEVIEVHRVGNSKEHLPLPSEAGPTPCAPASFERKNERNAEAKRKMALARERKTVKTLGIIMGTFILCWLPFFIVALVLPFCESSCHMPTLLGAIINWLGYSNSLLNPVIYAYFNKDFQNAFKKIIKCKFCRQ", "assay": "Competition of 3H-8-OH-DPAT binding to membranes", "details": "100 µM highest concentration tested", "protocol": "For SHT1a serotonin receptors, membranes (S-160, RBI/Sigma) are diluted into binding buffer (50 mM Tris pH 7.4 10 mM MgCl2 and 0.5 mM EDTA, with ascorbate at 1 mg/ml added immediately before use), e.g., 10 µl of membranes in 500 µl assay volume (i.e., 1:50 dilution). Cold competitor or test competitor is then added, e.g., 5 µl of 100x stock solution such as 5 µl of 1 mM oxymetazoline. Radioligand (^3H-8-OH-DPAT, TRK850, Amersham, 250 µCi in 250 µl; 4.5 µM at 222 Ci/mmol) is then added. For competition studies, ligand is employed (e.g., a 100x stock (i.e., 150 nM) is prepared by diluting the commercial stock 1:30 in binding buffer). Control tubes are prepared which have radioligand but no membranes. The tubes are vortexed then spun briefly. The mixtures are incubated for 1 hour at 4°C. The mixtures are filtered through GF/C filters pre-soaked in polyethyleneimine (0.3% in MilliQ water). The tubes are washed with 2-3 ml of wash buffer and filtered. The filter is washed with 3 x 5 ml of wash buffer, and air dried. 4.5 ml of scintillant is added to the dried filter in a scintillation vial and the filter counted on a tritium channel."}},
  "note": "Positions of bridges follow the written chain, without caps; N, C: chain ends. Non-standard residues stand in square brackets, D forms with d. Residues, ends and D or L forms follow the SMILES beside them. No end group written: not given here.",
  "data": [
    {"compound": "CSYRRITSSKSPKEAVC", "values": [
      {"measurement": "gp120 ED-50", "setting": "[1]", "value": ">100", "unit": "µM"},
      {"measurement": "% virus inhibition", "setting": "[2]", "value": "ns"}
    ]},
    {"compound": "=cvaekpsksstirrysc= ([dC][dV][dA][dE][dK][dP][dS][dK][dS][dS][dT][dI][dR][dR][dY][dS][dC]; bridge 1-17 (inferred); not fully specified; printed as =cvaekpsksstirrysc=)", "values": [
      {"measurement": "gp120 ED-50 (µM)", "setting": "[1]", "value": "ns"},
      {"measurement": "% virus inhibition", "setting": "[2]", "value": "ns"}
    ]},
    {"compound": "CC[C@H](C)[C@H](NC(=O)[C@H](C)NC(=O)[C@H](CC(=O)O)NC(=O)[C@@H]1CCCN1C(=O)[C@H](CCC(N)=O)NC(=O)[C@H](C)N)C(=O)N[C@@H](CC(N)=O)C(=O)N[C@@H](C)C(=O)N1CCC[C@H]1C(=O)N[C@H](C(=O)N[C@H](C(=O)N[C@@H](CS)C(=O)N[C@@H](CS)C(=O)O)[C@@H](C)O)C(C)C", "note": "[Peptide 1] (H-AQPDAINAPVTCC-OH; N-terminus and C-terminus assumed)", "values": [
      {"measurement": "% inhibition at 100 µM of migration induced by any of the chemokines tested", "setting": "[3]; 100 µM, CC and CXC chemokines", "value": "≤ 20", "unit": "%"},
      {"measurement": "effect on chemokine-induced THP-1 migration (in words)", "setting": "[3]", "value": "no significant effect"}
    ]},
    {"compound": "CC[C@@H](C)[C@H]1NC(=O)[C@@H](CCC(N)=O)NC(=O)[C@H](N)CSSC[C@H](C(N)=O)NC(=O)[C@@H](CC(C)C)NC(=O)[C@@H](CC(=O)O)NC(=O)[C@H]2CCCN2C(=O)[C@@H](CCCCN)NC(=O)[C@@H](CCC(N)=O)NC(=O)[C@@H](CCCCN)NC(=O)[C@@H](Cc2c[nH]c3ccccc23)NC1=O", "note": "(H-[dC][dQ][dI][dW][dK][dQ][dK][dP][dD][dL][dC]-NH2; disulfide 1-11)", "values": [
      {"measurement": "effect on chemokine-induced THP-1 migration (in words)", "setting": "[3]", "value": "very similar ED50s"},
      {"measurement": "Average ED50", "setting": "[3]; average inhibitory ED50 for THP-1 migration induced by each of the chemokines", "value": 0.1, "unit": "µM"},
      {"measurement": "ED50 for competition of 8-OH-DPAT binding to 5-HT1a receptors", "setting": "[4]", "value": ">100", "unit": "µM"}
    ]}
  ]
}
